Experiments:
[1] = biological target: T1, récepteurs hormonaux humains recombinant androgène (hAN) (Homo sapiens, UniProt P10275); test: Relative binding affinity for recombinant hormone receptors (SF9 insect cell-baculovirus overexpression)
T1 construct: made in house; host or cells: SF9 insect cells / baculovirus
From the text: (§1) Cette affinité a été étudiée sur les récepteurs hormonaux humains recombinant de la progestérone (hPR), androgène (hAN), glucocorticoide (hGR) et estrogène (hER).

[2] = In vivo studies of the hormonal activity profile
[3] = biological target: T2, récepteurs hormonaux humains recombinant glucocorticoide (hGR) (Homo sapiens, UniProt P04150); test: Relative binding affinity for recombinant hormone receptors (SF9 insect cell-baculovirus overexpression)
T2 construct: made in house; host or cells: SF9 insect cells / baculovirus
T2 sequence (P04150 1-777): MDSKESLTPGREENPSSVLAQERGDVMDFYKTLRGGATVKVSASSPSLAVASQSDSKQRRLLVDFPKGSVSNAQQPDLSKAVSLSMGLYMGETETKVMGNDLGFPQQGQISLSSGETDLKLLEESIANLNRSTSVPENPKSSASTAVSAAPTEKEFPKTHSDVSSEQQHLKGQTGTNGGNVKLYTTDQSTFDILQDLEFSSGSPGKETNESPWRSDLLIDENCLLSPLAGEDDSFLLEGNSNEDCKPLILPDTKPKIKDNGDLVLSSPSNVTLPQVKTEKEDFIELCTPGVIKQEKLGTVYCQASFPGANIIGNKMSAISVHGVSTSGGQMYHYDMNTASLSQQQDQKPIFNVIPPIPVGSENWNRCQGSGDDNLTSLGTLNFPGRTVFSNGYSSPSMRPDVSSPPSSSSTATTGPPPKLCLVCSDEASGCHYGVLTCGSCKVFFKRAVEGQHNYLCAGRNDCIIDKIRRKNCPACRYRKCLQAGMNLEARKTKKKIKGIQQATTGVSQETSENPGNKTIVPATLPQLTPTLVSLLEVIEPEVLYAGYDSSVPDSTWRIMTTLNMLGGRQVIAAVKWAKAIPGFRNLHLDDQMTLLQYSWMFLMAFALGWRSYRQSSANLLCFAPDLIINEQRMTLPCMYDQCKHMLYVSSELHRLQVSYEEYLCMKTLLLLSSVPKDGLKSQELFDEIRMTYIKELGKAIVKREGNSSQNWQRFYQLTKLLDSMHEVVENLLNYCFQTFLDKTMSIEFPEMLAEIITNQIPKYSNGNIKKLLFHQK
From the text: Cette affinité a été étudiée sur les récepteurs hormonaux humains recombinant de la progestérone (hPR), androgène (hAN), glucocorticoide (hGR) et estrogène (hER). Ces récepteurs sont obtenus par surexpression dans un système cellules d'insectes-bacullovirus SF9 selon les méthodes décrites notamment dans la demande de brevet Européenne 0 629 635. Les affinité relatives de liaison (ARL) sont les suivantes : […]

[4] = biological target: T3, récepteurs hormonaux humains recombinant de la progestérone (hPR) (Homo sapiens, UniProt P06401); test: as above
T3 construct: made in house; host or cells: SF9 insect cells / baculovirus
T3 sequence (P06401 1-933): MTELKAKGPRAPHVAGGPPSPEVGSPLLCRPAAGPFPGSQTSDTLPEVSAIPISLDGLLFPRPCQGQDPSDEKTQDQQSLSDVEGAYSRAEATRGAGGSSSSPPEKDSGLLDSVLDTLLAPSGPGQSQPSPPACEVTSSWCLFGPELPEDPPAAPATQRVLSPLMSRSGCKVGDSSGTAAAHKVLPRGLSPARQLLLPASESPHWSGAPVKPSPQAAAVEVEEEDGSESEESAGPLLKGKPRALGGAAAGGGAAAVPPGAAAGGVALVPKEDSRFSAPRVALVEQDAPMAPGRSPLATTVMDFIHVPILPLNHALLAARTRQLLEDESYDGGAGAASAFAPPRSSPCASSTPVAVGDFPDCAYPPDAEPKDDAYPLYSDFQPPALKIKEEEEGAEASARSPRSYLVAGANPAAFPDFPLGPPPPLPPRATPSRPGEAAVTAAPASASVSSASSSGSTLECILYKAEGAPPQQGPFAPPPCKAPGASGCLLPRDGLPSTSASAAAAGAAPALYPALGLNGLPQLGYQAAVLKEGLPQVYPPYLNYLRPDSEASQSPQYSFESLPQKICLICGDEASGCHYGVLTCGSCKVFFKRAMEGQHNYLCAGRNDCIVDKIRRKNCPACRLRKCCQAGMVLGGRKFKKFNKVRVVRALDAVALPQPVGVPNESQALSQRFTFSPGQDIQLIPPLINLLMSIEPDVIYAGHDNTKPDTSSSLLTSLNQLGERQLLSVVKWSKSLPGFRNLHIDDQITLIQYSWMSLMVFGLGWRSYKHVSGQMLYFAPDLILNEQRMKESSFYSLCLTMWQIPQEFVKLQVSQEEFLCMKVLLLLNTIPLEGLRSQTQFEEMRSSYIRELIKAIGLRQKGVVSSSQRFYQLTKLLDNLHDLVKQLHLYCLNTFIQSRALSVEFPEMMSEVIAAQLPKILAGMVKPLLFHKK
From the text: as §1

[5] = biological target: T4, récepteurs hormonaux humains recombinant estrogène (hER) (Homo sapiens, UniProt P03372); test: as above
T4 construct: made in house; host or cells: SF9 insect cells / baculovirus
T4 sequence (P03372 1-595): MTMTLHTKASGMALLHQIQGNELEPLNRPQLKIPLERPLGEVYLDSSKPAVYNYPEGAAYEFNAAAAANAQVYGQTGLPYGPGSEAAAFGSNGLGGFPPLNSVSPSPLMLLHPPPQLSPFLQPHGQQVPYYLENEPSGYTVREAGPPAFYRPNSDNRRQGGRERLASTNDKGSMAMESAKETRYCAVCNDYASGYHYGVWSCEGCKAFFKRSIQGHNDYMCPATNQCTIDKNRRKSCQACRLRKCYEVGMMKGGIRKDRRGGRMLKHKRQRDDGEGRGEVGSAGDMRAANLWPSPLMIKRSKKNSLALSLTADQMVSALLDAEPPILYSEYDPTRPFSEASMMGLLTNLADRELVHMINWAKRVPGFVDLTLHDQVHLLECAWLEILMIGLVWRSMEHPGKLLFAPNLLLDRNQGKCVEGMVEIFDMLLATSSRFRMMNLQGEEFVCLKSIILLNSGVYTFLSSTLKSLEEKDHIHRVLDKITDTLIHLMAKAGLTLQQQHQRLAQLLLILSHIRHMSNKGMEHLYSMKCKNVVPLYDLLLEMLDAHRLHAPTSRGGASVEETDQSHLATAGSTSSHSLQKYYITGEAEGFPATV
From the text: as §1

T1 sequence (P10275 whole entry): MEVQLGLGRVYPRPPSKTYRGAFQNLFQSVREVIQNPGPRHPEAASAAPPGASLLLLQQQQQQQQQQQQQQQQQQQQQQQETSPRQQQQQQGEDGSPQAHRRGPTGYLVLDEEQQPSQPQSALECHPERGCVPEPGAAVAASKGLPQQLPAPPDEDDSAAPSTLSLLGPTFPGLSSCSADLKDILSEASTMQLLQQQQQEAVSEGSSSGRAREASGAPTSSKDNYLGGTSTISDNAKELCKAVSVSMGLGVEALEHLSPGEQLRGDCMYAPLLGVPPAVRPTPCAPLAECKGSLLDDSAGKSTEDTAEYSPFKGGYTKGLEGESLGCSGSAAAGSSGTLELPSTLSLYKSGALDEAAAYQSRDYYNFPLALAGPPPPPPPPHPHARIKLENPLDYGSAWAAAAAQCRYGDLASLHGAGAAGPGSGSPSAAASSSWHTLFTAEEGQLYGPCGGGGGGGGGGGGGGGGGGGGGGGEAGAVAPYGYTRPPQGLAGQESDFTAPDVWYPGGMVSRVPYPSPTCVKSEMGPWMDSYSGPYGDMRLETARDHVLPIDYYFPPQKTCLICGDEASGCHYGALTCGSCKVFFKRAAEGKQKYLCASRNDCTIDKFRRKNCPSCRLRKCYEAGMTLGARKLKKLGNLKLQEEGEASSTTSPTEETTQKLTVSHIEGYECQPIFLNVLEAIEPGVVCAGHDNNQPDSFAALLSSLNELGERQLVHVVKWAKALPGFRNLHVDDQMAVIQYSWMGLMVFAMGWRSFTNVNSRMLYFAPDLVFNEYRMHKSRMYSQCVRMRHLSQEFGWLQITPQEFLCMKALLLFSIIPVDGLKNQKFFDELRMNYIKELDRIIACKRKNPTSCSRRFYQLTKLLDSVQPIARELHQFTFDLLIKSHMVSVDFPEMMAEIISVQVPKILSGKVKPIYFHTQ

C[C@H](O)C(=O)[C@@]1(C)CC[C@H]2[C@@H]3CCC4=CC(=O)CCC4=C3CC[C@@]21C [Trimegestone, 17alpha-méthyl-17béta-(2-hydroxy-1-oxo-propyl)-estra-4,9-dièn-3-one (21S)]
affinité vis-à-vis du récepteur androgène ([1]; in words): très faible affinité
activité androgène [2]: dénué
activité antiandrogène [2]: présente
activité antiglucocorticoïde [2]: dénué
activité antiminéralocorticoïde [2]: présente
activité estrogène [2]: dénué
activité glucocorticoïde [2]: dénué
activité minéralocorticoïde [2]: dénué
activité progestomimétique [2]: puissant progestomimétique

medroxypropgestérone [MPA]
ARL hGR [3]: 58
ARL hAN ([1]; relative binding affinity): 36
ARL hPR [4]: 298
ARL hER [5]: < 0,02

Reference: EP0906127B1, “NOVEL DEVICES FOR TRANSDERMAL ADMINISTERING OF TRIMEGESTONE” (priority 1996, dated 1997)
